Experimental data published in patent publication US20240262844A1, “PYRIDINIUM SALTS AND METHODS OF USE” (UNIVERSITY OF WYOMING, priority 2023, published 2024).
Several values for one entry are separate records, joined by “and”; a condition that tells them apart may be missing. Equal entries are not always repeated. Entries after “also recorded” stand apart in the source; their conditions may differ. Structures can show the parent of a compound that is named as a salt.

Columns and labels:
[1] = tested on: HEK293T lysates; experiment: Chemoproteomic profiling of HEK293T lysates (protein-level enrichment); format: biochemical, Human; conditions: for proteome labeling profile, streptavidin-HRP Western blot of elution profiles: 0-100 μM probe, with and without irradiation, before digestion; for number of proteins identified (from ≥2 unique peptides) with ≥2-fold enrichment versus DMSO: about 100 μM probe, 60 min incubation, 20 min irradiation (302 nm 1a, 320 nm 1b, 440 nm 2b)
Method: In lysate tryptophan probe treatment for protein-level characterization: HEK293T cell pellets were suspended in native lysis buffer (50 mM HEPES pH 7.5, 150 mM sodium chloride (NaCl), 1.5 mM MgCl2, 1 mM DTT, 0.8% NP-40, 5% glycerol, and 1x protease inhibitors (Thermo)) at 2x the pellet volume. The samples were sonicated on ice for 30 seconds at 20% amplitude with a 2 second pulse ON and 3 second pulse OFF. Cell debris was removed by centrifugation at 20,000×g for 20 minutes at 4° C. Protein concentration was determined by bicinchoninic acid (BCA) (Pierce) and diluted down to 5 mg/mL with ChemProt buffer (50 mM HEPES pH 7.5, 150 mM NaCl, 1.5 mM MgCl2, 1 mM DTT, 0.4% NP-40, and 1x protease inhibitors (Thermo). 5 mg cell lysates were treated with 100x stocks of the tryptophan probes (pyridinium salts 1a, 1b, and 2b) to generate final concentrations (0, 1, 10, and 100 μM) in 1% DMSO. Lysates were incubated for 1 hour at 4° C. followed by photo-activation at respective wavelengths for 20 minutes at 4° C. Excess probe was removed using Sephadex G-25 PD-10 desalting columns (GE Healthcare) pre-equilibrated with 50 mM HEPES pH 7.5, 150 mM NaCl, 1.5 mM MgCl2, and 0.4% NP-40. The samples were then treated with 100 μL Neutravidin resin as a 50% slurry (Peirce). The samples were incubated overnight on a rotating apparatus at R.T. The following day, the beads were transferred to a MobiCol column (Boca Scientific), washed 3× with phosphate buffered saline (PBS) containing 0.2% SDS, washed 3x with PBS, and the enriched proteins were eluted with 2×NuPAGE lithium dodecyl sulfate (LDS) containing 10 mM DTT (Pierce) and heated for 30 minutes at 55° C. The eluent was collected and subsequently treated with 20 mM iodoacetamide (Pierce) for 30 minutes at R.T. protected from light. Samples were passed through detergent removal columns (Pierce) that were pre-equilibrated with 50 mM HEPES pH 8.0. The samples were treated with 2.5 μg Trypsin/LysC (Promega) at 37° C. for 16 hours. The following day, the sample was collected and prepped for isobaric labeling with TMT reagents (Thermo) as specified by the manufacturer.
Quantitative proteomics by two-dimensional nano liquid chromatography-tandem mass spectrometry (nLC-MS/MS): For protein-level characterization, the TMT-labeled sample were reconstituted in 0.1% formic acid (FA)/2% acetonitrile for offline high-pH reversed phase separation (RP10) using a Dionex UltiMate 3000 high-performance liquid chromatography (HPLC) system with fraction collection using Chromeleon v.6.8 (Thermo) software. Separation was achieved on a Waters Xbridge C18 3.5 μm 2.1×150 mm HPLC column (Waters) using a flow rate of 250 μL min-1 and the following ternary gradient and conditions: mobile phase A=water (HPLC grade), mobile phase B=acetonitrile (HPLC grade), and mobile phase C=200 mM ammonium acetate, pH 10. Mobile phase C is held at 10% throughout gradient. Starting conditions are 89% mobile phase A and 1% mobile phase B, ramping mobile phase B to 80% over 65 min. Fractions were collected in 96-well plates at 100 see per well. Fractions were reduced down to 12 fractions, dried, and reconstituted in 0.1% FA/2% acetonitrile for nLC-MS/MS. All data were acquired using a Orbitrap Fusion Lumos coupled to an Easy-nLC 1200 nanoflow liquid chromatograph operating at 300 nL min^−1. Peptides were cleaned up using a 1 cm online custom trap then eluted on a custom 20 cm laser pulled 75 μm column with C18 resin. Peptides were quantified using the synchronous precursor selection (SPS-MS3) or HCD method for TMT quantitation with 120k MS1 resolving power, 50 ms max injection time and 100% AGC. MS2 spectra were selected using the top ten most abundant features with a charge state between 2-6 using CID (collision induced dissociation) in the ion trap. The AGC was set to 100% with an isolation width of 0.7. MS3 was performed on the top 10 most abundant MS2 features between 400-1600 amu with a collision energy of 55%, AGC of 250%, and 50k resolution. […]

[2] = target: T1, lysozyme (14.3 kDa) (Gallus gallus, UniProt P00698); experiment: Photochemical labeling of lysozyme (LC/MS); format: biochemical, chicken; conditions: 500 μM pyridinium salt 2c, 300 μM glutathione
T1 construct: Lysozyme (from chicken egg white, >40,000 units/mg of protein); purchased Sigma Aldrich; host or cells: chicken egg white
Method: General Procedure B: Photochemical Irradiation of Peptides and Proteins: To a 2 mL Pyrex LC/MS vial (Thermo model #03-391-39) were sequentially added solutions containing the desired biomolecule, glutathione (GSH), pyridinium salt, and ammonium acetate (NH4OAc). The resulting solution was diluted to a final volume of 500 μL and then sparged using nitrogen for a minimum of 30 minutes prior to irradiation. The actively sparging solution was then placed in an EvoluChem™ PhotoRedOx Box photoreactor that was equipped with a Kessil, PR160 427 nm LED Lamp and was then irradiated (100% lamp intensity) for the designated time at room temperature while maintaining active sparging. The resultant reaction mixture was then analyzed directly by LC/MS. Analysis of labeling outcomes using LC/MS was performed either by extracted ion chromatogram intensities (method A) or by integrating the area under the peaks associated with peptide content (method B). These values were totaled, and estimated percentages were assigned according to relative intensities of peaks or ion counts.
Labeling of Lysozyme with Pyridinium Salt 2a (Lysozyme-2a Conjugate). Labeling of lysozyme (14.3 kDa) with the pyridinium salt 2a was performed by following general procedure B using the following solutions: lysozyme (27 μL, 182 μM, 10 μM final concentration), pyridinium salt 2a (200 μL, 500 μM, 200 μM final concentration), NH4+OAc (100 μL, 100 mM, pH=6.9, 20 mM final concentration), glutathione (15 μL, 10 mM, 300 μM final concentration), and water (158 μL) with a 100% intensity irradiation time of 60 minutes. The reaction mixture was analyzed directly by LC/MS using method A and was estimated to have proceeded in >95% conversion and a 10.9:1 mono:di labeled ratio and 10% glutathionylation of all unlabeled and labeled protein content was observed.
Labeling of Lysozyme with Pyridinium Salt 2b (Lysozyme-2b Conjugate). Labeling of lysozyme (14.3 kDa) with the pyridinium salt 2b was performed by following general procedure B using the following solutions: lysozyme (19 μL, 262 μM, 10 μM final concentration), 2b (181 μL, 554 μM, 200 μM final concentration), NH4OAc (50 μL, 200 mM, pH=6.9, 20 mM final concentration), glutathione (50 μL, 3 mM, 300 μM final concentration), and water (200 μL) with a 100% intensity irradiation time of 10 minutes. The reaction mixture was analyzed directly by LC/MS using method A and was estimated to have proceeded with 83% conversion. Partial oxidation at biotin obfuscated estimation of both oxidation and glutathionylation. Lysozyme-2b conjugate (retention time (Tr)=2.80-5.17 min).
Labeling of Lysozyme with Pyridinium Salt 2c (Lysozyme-2c Conjugate). Labeling of lysozyme (14.3 kDa) with the pyridinium salt 2c was performed by following general procedure B using the following solutions: lysozyme (19 μL, 262 μM, 10 μM final concentration), pyridinium salt 2c(367 μL, 680 μM, 500 μM final concentration), NH4OAc (50 μL, 200 mM, pH=6.9, 20 mM final concentration), glutathione (50 μL, 3 mM, 300 μM final concentration), and water (14 μL) with a 100% intensity irradiation time of 10 minutes. The reaction mixture was analyzed directly by LC/MS using method A and was estimated to have proceeded with 85% conversion and a 3.7:1 mono:di labeled ratio and 10% glutathionylation of all protein content was observed. Lysozyme-2c conjugate (retention time (Tr)=3.11-5.07 min).
Labeling of Lysozyme with Pyridinium Salt 2d (Lysozyme-2d Conjugate). Labeling of lysozyme (14.3 kDa) with the pyridinium salt 2d was performed by following general procedure B using the following solutions: Lysozyme (16.8 μL, 0.297 mM solution in H2O, final concentration […]), pyridinium salt 2d (91.8 μL, 1.09 mM solution in CH3CN/H2O (2:3), final concentration 200 μM), NH4OAc (50 μL, 200 mM in H2O, final concentration 20 mM, pH 6.9), glutathione (15 μL, 10 mMsolution in H2O, final concentration 300 μM), and water (326.4 μL) with a 100% intensity irradiation time of 20 minutes. […]

[3] = Water solubility of salt forms; format: physicochemical; conditions: trifluoroacetate salt compared to the tetrafluoroborate salt
Method: Pyridinium salt 2c was synthesized by adapting general procedure A as follows: To a flame dried round-bottom flask equipped with a stir bar was added 4-(6-methoxynaphthalen-2-yl)-2,6-dimethylpyrylium tetrafluoroborate (S2) (80 mg, 0.23 mmol), 6-((4R,5S)-5-methyl-2-oxoimidazolidin-4-yl)hexyl 1-methylhydrazine-1-carboxylate S6 (110 mg, 0.404 mmol), and ethanol (1.2 mL) and stirred for 24 hours at 60° C. The reaction mixture was then concentrated using a rotary evaporator. The resulting residue was dissolved in dichloromethane and washed with 10% fluoroboric acid (HBF4, aqueous) (2×10 mL), saturated NaBF4 (aqueous) (2×10 mL), dried over […], filtered, and concentrated using a rotary evaporator. The resulting green solid was then sonicated in hexanes followed by decanting of the supernatant. This procedure was repeated 5 times and the resulting solid was dried under vacuum to obtain the tetrafluoroborate salt of 2c as a green solid (119 mg, 76%). The tetrafluoroborate salt of 2c was further purified by HPLC using general method B to yield the trifluoroacetate (X=TFA, CF3CO2^−) salt of 2c.

T1 sequence (P00698 19-147): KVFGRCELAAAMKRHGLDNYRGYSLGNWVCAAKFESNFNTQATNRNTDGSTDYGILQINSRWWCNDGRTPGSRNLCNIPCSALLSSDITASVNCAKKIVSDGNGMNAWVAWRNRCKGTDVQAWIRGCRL

Structure (SMILES): Cc1cc(-c2ccccc2)cc(C)[n+]1N(C)C(=O)OCCCCC[C@@H]1SC[C@@H]2NC(=O)N[C@@H]21 [Pyridinium salt 1b, 2,6-dimethyl-1-(methyl(((5-((3aS,4S,6aR)-2-oxohexahydro-1H-thieno[3,4-d]imidazole-4-yl)pentyl)oxy)carbonyl)amino)-4-phenylpyridin-1-ium tetrafluoroborate]
- proteome labeling profile, streptavidin-HRP Western blot of elution profiles [1]: concentration and optically dependent proteome labeling profiles; also recorded: dose-response profiles
- number of proteins identified (from ≥2 unique peptides) with ≥2-fold enrichment versus DMSO [1]: 365 proteins

Structure (SMILES): Cc1cc(C)[n+](N(C)C(=O)OCCCCC[C@@H]2SC[C@@H]3NC(=O)N[C@@H]32)c(C)c1 [Pyridinium salt 1a, 2,4,6-trimethyl-1-(methyl(((5-((3aS,4S,6aR)-2-oxohexahydro-1H-thieno[3,4-d]imidazol-4-yl)pentyl)oxy)carbonyl)amino)pyridin-1-ium tetrafluoroborate]
- proteome labeling profile, streptavidin-HRP Western blot of elution profiles [1]: concentration and optically dependent proteome labeling profiles; also recorded: loss of signal
- number of proteins identified (from ≥2 unique peptides) with ≥2-fold enrichment versus DMSO [1]: 185 proteins

Structure (SMILES): COc1ccc2cc(-c3cc(C)[n+](N(C)C(=O)OCCCCCC[C@H]4NC(=O)N[C@H]4C)c(C)c3)ccc2c1 [Pyridinium salt 2c, 4-(6-methoxynaphthalen-2-yl)-2,6-dimethyl-1-(methyl(((6-((4R,5S)-5-methyl-2-oxoimidazolidin-4-yl)hexyl)oxy)carbonyl)amino)pyridin-1-ium trifluoroacetate]
- conversion ([2]; 10 μM lysozyme, 20 mM NH4OAc pH 6.9, 427 nm, 10 minutes, trifluoroacetate): 85% and 86%
- glutathionylation of all protein content ([2]; 10 minutes irradiation): 10%
- water solubility [3]: superior water solubility
